Patent EP0729465B1, “PYRONE DERIVATIVES AS PROTEASE INHIBITORS AND ANTIVIRAL AGENTS” (PARKE, DAVIS & COMPANY, priority 1993, dated 1995)
Converted amounts (≈) assume the structure as drawn. Where two headings read alike, the source gives them in different places.

How the values were obtained:
[1] = test system: Enterococcus foecalis MGH2; experiment: Antibacterial activity, microtitration dilution method (MIC); type: cell-based
Source text: (§1) The compounds of the invention display antibacterial activity when tested by the microtitration dilution method as described in Heifetz, et al., Antimicr. Agents. & Chemoth. 6:124 (1974) which is incorporated herein by reference.
(§2) By use of the above referenced method, the following minimum inhibitory concentration values (MICs in µg/mL) were obtained for representative compounds of the invention vs. clinically relevant gram positive pathogens which have become highly resistant to conventional therapy in recent years.

[2] = test system: Streptococcus pyogenes C203; experiment: as above; type: cell-based
Source text: as §1, §2

[3] = test system: Staphylococcus aureus H228; experiment: as above; type: cell-based
Source text: as §1, §2

[4] = test system: Streptococcus pneumonia 5V-1; experiment: as above; type: cell-based
Source text: as §1, §2

[5] = test system: Staphylococcus aureus UC-76; experiment: as above; type: cell-based
Source text: as §1, §2

HIV-I Protease = target: T1, HIV-I Protease (Human immunodeficiency virus type 1 group M subtype B, UniProt P04585); experiment: HIV protease inhibition (hydrolysis of undecapeptide substrate, HPLC readout); type: biochemical; details: read-out: 50% Inhibition Concentration (Averaged)
T1 construct: HIV-I Protease: The enzyme is obtained from Bachem Bioscience Inc; purchased Bachem Bioscience Inc
Protocol: • DTT Buffer: 1.0 mM dithiothreitol (DTT) was prepared fresh daily in 0.1% polyethylene glycol (mw 8000) 80 mM NaOAc, 160 mM NaCl, 1.0 mM EDTA, and brought to pH 4.7 with HCl. • HIV-I Protease: The enzyme is obtained from Bachem Bioscience Inc. The undiluted enzyme is thawed from -80 °C and diluted 50-fold with DTT buffer. The solution is always kept at 0 °C on ice water and used in the experiment within 20 minutes after thawing. • Enzyme Substrate: Substrate III from Bachem Bioscience Inc. is the undecapeptide H-His-Lys-Ala-Arg-Val-Leu-p-Nitrophenylalanine-Glu-Ala-Norleucine-ser-NH2 (> 97 % purity). A 200. µM stock solution in DTT buffer is prepared and stored on ice. Substrate solution is prepared fresh daily. • Test Compound: 10 mM inhibitor (I) in dimethyl sulfoxide (DMSO) is diluted to 200 µM with DTT buffer. From the 200 µM stock solution is made a 10 µM stock solution with 2% DMSO in DTT buffer. The two inhibitor solutions are used to make final [I] = 100, 50, 20, 10, 5, 2, 1, 0.5 and 0 µM with 2% DMSO in DTT buffer in each reaction well (total inhibitor volume of 50 µl).
To each reaction well is added 20 µl of substrate (final concentration of 40 µM), 50 µl of inhibitor (at a concentration such that final dilution will produce the test concentration) and 20 µl of DTT buffer. The reaction plate (96 wells) is incubated at 37 °C for at least 5 minutes.
10 µl of the diluted protease is added to the reaction well while the reaction plate is shaking. Once shaken for 10 seconds, the plate is returned to the heating block at 37 °C. (Final reaction volume = 100 µl.)
The reaction is incubated for 5 minutes at 37 °C. The reaction is stopped by placing the reaction plate on the shaker and adding 20 µl of 10% trifluoroacetic acid (TFA) and shaking for 10 seconds. The amount of proteolysis is then determined by separation of noncleaved substrate and two cleaved products with reverse-phase HPLC, while measuring absorbance at 220 nm to determine the relative peak areas of the three components. The relative peak areas are used to calculate % conversion to product as a function of inhibitor concentration. The data is plotted as % Control (the ratio of % conversion in the presence and absence of inhibitor x 100) versus inhibitor concentration and fit with the equation Y= 100/1+(X/IC50)^A, where IC50 is the inhibitor concentration at 50% inhibition and A is the slope of the inhibition curve.

HIV-1iiib = experiment: Anti-HIV-1 activity, acute infection of H9 cells; type: cell-based; details: Human immunodeficiency virus 1; H9 cell line infected with HIV-1iiib; reverse transcriptase assay at 4 and 7 days post infection; read-out: Concentration for 50% Protection
Protocol: Using the general methods of Pauwels et al., (J. Virol. Methods, 16, 171-185, 1987) and Mann et al. (AIDS Research and Human Retroviruses, 253-255, 1989) anti-viral assays of acute HIV-1 infection were performed in the H9 cell line. Cultures were batch infected in 1 ml of RPM1 1640 media/10% fetal calf serum containing 10^7 cells and 10^5 infectious doses of HIV-1iiib for an effective multiplicity of infection of 0.01. After 2 hours of viral absorption, cells were washed once and plated in 96-well microtiter plates at a density of 10^4 cells per well. Test compounds were added to produce the desired concentration of drug and 0.2% DMSO in a final volume of 200 µl. Uninfected parallel cultures were maintained for XTT cytotoxicity assay at 7 days post infection. Cultures were tested for viral replication by reverse transcriptase assay at 4 and 7 days post infection.

[6] = read-out: minimum inhibitory concentration (MIC)
[7] = 40 µM substrate, pH 4.7, 37 °C, 5 minutes

3-[1-(Cyclohexylthio)-3-methylbutyl]-4-hydroxy-6-phenyl-2H-pyran-2-one [Example 128]
minimum inhibitory concentration (MIC) [1]: 25 µg/mL
minimum inhibitory concentration (MIC) [2]: 25 µg/mL
minimum inhibitory concentration (MIC) [3]: 12.5 µg/mL
minimum inhibitory concentration (MIC) [4]: 25 µg/mL
minimum inhibitory concentration (MIC) [5]: 12.5 µg/mL

CC(C)(C)CC(SC1CCCCC1)c1c(O)cc(-c2ccccc2)oc1=O (racemic) [Example 92, 3-[1-(Cyclohexylthio)-3,3-dimethylbutyl]-4-hydroxy-6-phenyl-2H-pyran-2-one]
MIC [1, 6]: 100 µg/mL (≈ 259 µM)
MIC [2, 6]: 50 µg/mL (≈ 129 µM)
MIC [3, 6]: 25 µg/mL (≈ 64.7 µM)
MIC ([4]; Streptococcus pneumoniae, 5V1, read-out: minimum inhibitory concentration (MIC)): 50 µg/mL (≈ 129 µM)
MIC ([5]; UC76, read-out: minimum inhibitory concentration (MIC)): 25 µg/mL (≈ 64.7 µM)

O=c1oc(-c2ccc(OCc3cccnc3)cc2)cc(O)c1SCCc1ccccc1 [Example 64, 4-Hydroxy-3-[(2-phenylethyl)thio]-6-[4-(3-pyridinylmethoxy)phenyl]-2H-pyran-2-one]
IC50 (HIV-I Protease; [7]): 1500 nM
EC50 (HIV-1iiib): 3000 nM

O=c1oc(-c2ccc3c(c2)OCCO3)cc(O)c1SCc1ccccc1 [Example 107, 6-(2,3-Dihydro-1,4-benzodioxin-6-yl)-4-hydroxy-3-[(phenylmethyl)thio]-2H-pyran-2-one]
IC50 (HIV-I Protease): 480 nM
EC50 (HIV-1iiib): 15000 nM

CC(C)c1ccccc1Sc1c(O)cc(-c2ccc(OCc3cccnc3)cc2)oc1=O [Example 157, 4-Hydroxy-3-[(2-isopropylphenyl)thio]-6-[4-(pyridin-3-ylmethoxy)phenyl]-2H-pyran-2-one]
IC50 (HIV-I Protease; [7]): 68 nM
EC50 (HIV-1iiib): 650 nM
